Converted amounts (≈) assume the structure as drawn. Like-named read-outs stand apart in the source and are kept apart here. Marks after values point to notes of the source that are not given here.
What was measured:
[1] = Metabolic stability in dog liver microsomes; assay type: in vitro ADME; conditions: 10 μM, 1 mg/mL microsomes, 37° C.
Source text: (§1) The metabolic stability assay is to evaluate the stability of test compound in biological matrices. Data are useful in terms of understanding and predicting the elimination mechanisms of the test compound. CYP450-dependent metabolism of drugs can also vary widely from one species to another. Evaluating in vitro metabolism of a drug by liver microsomes from multiple species allows the comparison of metabolism in animal species to that of humans. This can help identify the most relevant animal model for PK and toxicology studies. The metabolic stability of a test compound was evaluated in vitro in liver microsomes of the rat, dog, monkey, and human. 10 μM of the test compound was pre-incubated for 5 min at 37° C. with 1 mg/mL liver microsomes in 0.1M Tris buffer, pH 7.4 containing 5 mM MgCl2 and 0.1 mM EDTA. Following pre-incubation, NADPH (final concentration of 3 mM) was added to start the reaction and samples incubated for 0 and 1 or 2 hours. After terminating the reaction, the supernatant was analyzed by HPLC-UV or LC/MS/MS for the disappearance of the parent and formation of metabolite(s). The %parent remaining was the peak area ratio of the 1 or 2 hr sample to the time 0 sample. In general, less metabolism (higher % parent values) is more desirable.

CYP3A4 = biological target: T1, CYP3A4 (Homo sapiens, UniProt P08684); experiment: CYP450 inhibition, CYP3A4/BFC screening kit; assay type: in vitro ADME
T1 construct: purchased BD Biosciences
T1 sequence (P08684 whole entry): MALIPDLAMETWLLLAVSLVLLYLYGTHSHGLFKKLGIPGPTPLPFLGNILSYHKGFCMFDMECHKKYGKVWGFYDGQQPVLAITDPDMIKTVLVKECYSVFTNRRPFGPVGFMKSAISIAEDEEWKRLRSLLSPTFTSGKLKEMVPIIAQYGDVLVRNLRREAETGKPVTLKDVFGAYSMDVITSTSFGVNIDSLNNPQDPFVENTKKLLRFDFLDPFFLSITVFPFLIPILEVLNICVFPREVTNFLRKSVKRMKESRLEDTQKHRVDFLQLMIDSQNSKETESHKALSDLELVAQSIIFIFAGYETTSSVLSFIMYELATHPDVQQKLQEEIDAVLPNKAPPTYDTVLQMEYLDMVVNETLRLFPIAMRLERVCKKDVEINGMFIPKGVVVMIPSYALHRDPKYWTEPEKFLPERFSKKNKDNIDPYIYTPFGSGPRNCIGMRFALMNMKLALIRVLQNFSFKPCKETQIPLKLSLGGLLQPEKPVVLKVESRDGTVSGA
Source text: (§2) In vitro CYP450 inhibition screening allows for the prediction of potential drug-drug interactions. […] Potency and rank order of the inhibition can be assessed by determination of the IC50 values for a particular isozyme.
(§3) CYP3A4 inhibition was screened using the CYP3A4/BFC high throughput inhibitor screening kit (BD Biosciences), CYP2D6 inhibition was screened using the CYP2D6/AMMC high throughput inhibitor screening kit (BD Biosciences), and CYP2C9 inhibition was screened using the P450-Glo™ Assay kit (Promega).

[2] = Metabolic stability in human liver microsomes; assay type: in vitro ADME; conditions: 10 μM, 1 mg/mL microsomes, 37° C.
Source text: as §1

CYP2D6 = biological target: T2, CYP2D6 (Homo sapiens, UniProt P10635); experiment: CYP450 inhibition, CYP2D6/AMMC screening kit; assay type: in vitro ADME
T2 construct: purchased BD Biosciences
T2 sequence (P10635 whole entry): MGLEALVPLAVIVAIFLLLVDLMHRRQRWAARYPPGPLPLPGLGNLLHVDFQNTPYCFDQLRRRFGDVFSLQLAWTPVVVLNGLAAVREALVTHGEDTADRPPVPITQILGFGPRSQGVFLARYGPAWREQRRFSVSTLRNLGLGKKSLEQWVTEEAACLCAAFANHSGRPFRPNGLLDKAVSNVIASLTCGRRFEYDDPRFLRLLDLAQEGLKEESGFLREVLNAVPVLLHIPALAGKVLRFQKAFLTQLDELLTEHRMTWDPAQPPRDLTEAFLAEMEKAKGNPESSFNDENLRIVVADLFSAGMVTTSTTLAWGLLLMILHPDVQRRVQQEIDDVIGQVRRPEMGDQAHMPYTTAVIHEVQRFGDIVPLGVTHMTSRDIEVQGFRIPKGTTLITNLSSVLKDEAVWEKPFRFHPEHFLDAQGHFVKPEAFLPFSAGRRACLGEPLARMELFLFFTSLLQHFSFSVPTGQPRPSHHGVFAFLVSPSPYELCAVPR
Source text: as §2, §3

CYP2C9 = biological target: T3, CYP2C9 (Homo sapiens, UniProt P11712); experiment: CYP450 inhibition, CYP2C9 P450-Glo assay kit; assay type: in vitro ADME
T3 construct: purchased Promega
T3 sequence (P11712 whole entry): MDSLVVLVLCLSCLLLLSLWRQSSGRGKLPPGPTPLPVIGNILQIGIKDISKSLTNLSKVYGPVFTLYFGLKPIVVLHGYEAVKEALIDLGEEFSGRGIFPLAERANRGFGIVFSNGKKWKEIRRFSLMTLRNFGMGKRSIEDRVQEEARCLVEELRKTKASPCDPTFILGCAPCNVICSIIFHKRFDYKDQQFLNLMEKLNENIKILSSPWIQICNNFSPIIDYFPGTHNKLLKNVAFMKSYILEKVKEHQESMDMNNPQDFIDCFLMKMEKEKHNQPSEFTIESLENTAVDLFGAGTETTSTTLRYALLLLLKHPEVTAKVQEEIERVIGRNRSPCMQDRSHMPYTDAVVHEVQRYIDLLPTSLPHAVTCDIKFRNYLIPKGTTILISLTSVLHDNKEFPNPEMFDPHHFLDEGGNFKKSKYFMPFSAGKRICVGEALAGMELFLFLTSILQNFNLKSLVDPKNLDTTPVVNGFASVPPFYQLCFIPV
Source text: as §2, §3

[3] = pH dependent aqueous solubility, shake-flask method; assay type: physicochemical; conditions: aqueous solution, thermodynamic from solid, saturated concentration 1 mM
Protocol: The aqueous solubility of each compound was determined by the conventional shake-flask method at a saturated concentration of 1 mM. The flask (vial) was shaken for 3 hrs at ambient temperature, and then centrifuged. The supernatant was analyzed by HPLC with UV detection for solubility determination. In general, a higher aqueous solubility is more desirable for drug candidates.

[4] = Metabolic stability in rat liver microsomes; assay type: in vitro ADME; conditions: 10 μM, 1 mg/mL microsomes, 37° C.
Source text: as §1

[5] = Human plasma protein binding, equilibrium dialysis; assay type: in vitro ADME; conditions: pooled human plasma, 37° C., about 6 hours, 1 μM drug, read-out: Protein binding (human plasma) % Free
Protocol: The human plasma protein binding was determined using the Equilibrium Dialysis method. Dialysis was conducted with pooled human plasma at 37° C. for approximately 6 hours at a drug concentration of 1 μM. At the end of the dialysis, buffer samples from the buffer-side of the dialysis cell were collected and analyzed by LC/MS/MS for free drug concentration. For NNRTIs, a lower protein binding is more desirable.

[6] = Metabolic stability in monkey liver microsomes; assay type: in vitro ADME; conditions: 10 μM, 1 mg/mL microsomes, 37° C.
Source text: as §1

[7] = In vitro metabolism in liver microsomes, metabolic pathway; assay type: in vitro ADME, rat, dog, monkey, and human; conditions: LC/MS/MS metabolite profiling
Protocol: Phase I biotransformation of a test compound is evaluated in this assay. Samples from the metabolic stability experiment were analyzed by LC/MS/MS for metabolite profiling and identification. Structures of metabolites were elucidated based on multiple MS/MS experiments such as full scan, neutral loss scan, and product ion scan. Metabolic pathways were then postulated based on the structures of major metabolites. For compounds from the phosphinate series, N-oxidation of the terminal pyridine ring is the predominant pathway, followed by the oxidation of the dimethyl-phenyl group, where the methyl group(s) is hydroxylated, further oxidized to an aldehyde, and finally to a carboxylic acid. The elucidation of metabolic pathways is important in terms of understanding the elimination mechanism of a test compound and assisting the design of new molecules with improved DM-PK profiles.

[8] = PK and oral bioavailability in the dog; assay type: in vivo, Beagle dogs; conditions: for half-life: PEG400, read-out: T½ (converted)
Protocol: (§4) The pharmacokinetics of a test compound was evaluated in Sprague-Dawley rats and Beagle dogs. A typical PK study involved dosing of 2 to 3 animals via a single IV bolus injection at 1 mg/kg and another 3 animals via a single oral gavage at 5 mg/kg. Blood samples were collected at various time points over a 24-hr period. Plasma was separated and analyzed for test compound and its metabolite(s) by LC/MS/MS. PK parameters were calculated from the plasma concentration—time profile using a noncompartmental method. Oral bioavailability (F) was calculated based on dose-normalized AUC values from oral and IV administration. Higher oral bioavailability values are better.

[9] = PK and oral bioavailability in the rat; assay type: in vivo, Sprague-Dawley rats; conditions: IV, 1.0 mg/kg
Protocol: as §4

[10] = pH 1, simulated gastric fluid, pH1, ambient temperature, read-out: Aqueous solubility pH1
[11] = pH 3, aqueous buffer, pH3, ambient temperature, read-out: Aqueous solubility pH3
[12] = pH 7, aqueous buffer, pH7, ambient temperature, read-out: Aqueous solubility pH7
[13] = pH 9, aqueous buffer, pH9, ambient temperature, read-out: Aqueous solubility pH9
[14] = Beagle, plasma, IV, 1.0 mg/kg, PEG400
[15] = Beagle, plasma, PO, 5.0 mg/kg, PEG400

SMILES: COP(=O)(c1cc(C)cc(C)c1)c1c(C(=O)NCc2cc[n+]([O-])cc2)[nH]c2ccc(Cl)c(F)c12 (centres unmarked) [Compound B]
- Metabolic stability in liver microsomes % Parent after 2 hrs, Dog [1]: 85%
- IC50 (CYP3A4): 1.04 µM
- Metabolic stability in liver microsomes % Parent after 2 hrs, Human [2]: 94%
- IC50 (CYP2D6): > 10 µM
- IC50 (CYP2C9): > 10 µM
- solubility at 3 h [3, 10]: 190 µM (≈ 95.4 µg/mL)
- solubility at 3 h [3, 11]: 170 µM (≈ 85.3 µg/mL)
- solubility at 3 h [3, 12]: 200 µM (≈ 100 µg/mL)
- solubility at 3 h [3, 13]: 190 µM (≈ 95.4 µg/mL)
- Metabolic stability in liver microsomes % Parent after 2 hrs, Rat [4]: 1%
- fraction unbound at 6 h, 1 μM [5]: 0.038
- Metabolic stability in liver microsomes % Parent after 2 hrs, Monkey [6]: 63%

SMILES: COP(=O)(c1cc(C)cc(F)c1)c1c(C(=O)NCc2cc[n+]([O-])cc2)[nH]c2ccc(Cl)cc12 (centres unmarked) [Compound G]
- Metabolic pathway (in vitro) [7]: Hydroxylation to CH3OH— to CHO— to COOH—
- Metabolic stability in liver microsomes % Parent after 2 hrs, Dog [1]: 77%
- IC50 (CYP3A4): 1.14 µM
- Metabolic stability in liver microsomes % Parent after 2 hrs, Human [2]: 85%
- IC50 (CYP2D6): > 10 µM
- IC50 (CYP2C9): 8.85 µM
- Metabolic stability in liver microsomes % Parent after 2 hrs, Rat [4]: 24%
- fraction unbound at 6 h, 1 μM [5]: 0.016
- Metabolic stability in liver microsomes % Parent after 2 hrs, Monkey [6]: 41%

SMILES: COP(=O)(C1=C(C(=O)NCc2ccncc2)N=C2C=CC(Cl)=CC21)c1cc(C)cc(C)c1 (centres unmarked) [Compound N]
- Metabolic stability in liver microsomes % Parent after 1 hr incubation, Dog ([1]; 1 hr (footnote *)): 24%*
- AUC(0-inf) [8, 14]: 970 ng·h/mL
- AUC(0-t) [8, 14]: 924 ng·h/mL
- Cmax [8, 14]: 407 ng/mL
- half-life ([8]; Beagle, plasma, IV, 1.0 mg/kg): 4.2 h
- Vd ([8]; Beagle, plasma, IV, 1.0 mg/kg, PEG400, read-out: Vss): 4.08 L/kg
- AUC(0-inf) [8, 15]: 139 ng·h/mL
- AUC(0-t) [8, 15]: 116 ng·h/mL
- Cmax [8, 15]: 60.9 ng/mL
- Tmax [8, 15]: 0.7 h
- half-life ([8]; Beagle, plasma, PO, 5.0 mg/kg): 2.8 h
- AUCinf/Dose ([8]; IV, 1.0 mg/kg, PEG400): 970.1
- CI ([8]; IV, 1.0 mg/kg, PEG400): 19.872 mL/min/kg
- AUCinf/Dose ([8]; PO, 5.0 mg/kg, PEG400): 27.7
- F ([8]; PO, 5.0 mg/kg, PEG400, oral bioavailability): 2.9%
- IC50 (CYP3A4): 0.66 µM
- Metabolic stability in liver microsomes % Parent after 1 hr incubation, Human ([2]; 1 hr (footnote *)): 22%*
- IC50 (CYP2D6): 2.04 µM
- solubility at 3 h [3, 10]: > 1000 µM
- solubility at 3 h [3, 11]: 231 µM (≈ 108 µg/mL)
- solubility at 3 h [3, 12]: 2.1 µM (≈ 0.983 µg/mL)
- solubility at 3 h [3, 13]: 1.7 µM (≈ 0.795 µg/mL)
- AUCinf/Dose ([9]; PEG400): 125.9
- CI ([9]; PEG400): 133.2 mL/min/kg
- AUC(0-inf) ([9]; Sprague-Dawley, plasma, PEG400): 126 ng·h/mL
- AUC(0-t) ([9]; Sprague-Dawley, plasma, PEG400): 108 ng·h/mL
- Cmax ([9]; Sprague-Dawley, plasma, PEG400): 119 ng/mL
- half-life ([9]; Sprague-Dawley, plasma, PEG400, read-out: T½ (converted)): 0.9 h
- Vd ([9]; Sprague-Dawley, plasma, PEG400, read-out: Vss): 9.59 L/kg
- Metabolic stability in liver microsomes % Parent after 1 hr incubation, Rat ([4]; 1 hr (footnote *)): 1%*
- fraction unbound at 6 h, 1 μM [5]: 0.002
- Metabolic stability in liver microsomes % Parent after 1 hr incubation, Monkey ([6]; 1 hr (footnote *)): 1%*

SMILES: COP(=O)(C1=C(C(=O)NCc2ccncc2)N=C2C=CC(Cl)=C(F)C21)c1cc(C)cc(C)c1 (centres unmarked) [Compound O]
- Metabolic stability in liver microsomes % Parent after 2 hrs, Dog [1]: 29%
- IC50 (CYP3A4): 0.81 µM
- Metabolic stability in liver microsomes % Parent after 2 hrs, Human [2]: 15%
- IC50 (CYP2D6): 1.35 µM
- IC50 (CYP2C9): 5.35 µM
- solubility at 3 h [3, 10]: 820 µM (≈ 398 µg/mL)
- solubility at 3 h [3, 11]: 590 µM (≈ 287 µg/mL)
- solubility at 3 h [3, 12]: 9.1 µM (≈ 4.42 µg/mL)
- solubility at 3 h [3, 13]: 10.1 µM (≈ 4.91 µg/mL)
- Metabolic stability in liver microsomes % Parent after 2 hrs, Rat [4]: 2%
- fraction unbound at 6 h, 1 μM [5]: 0.009
- Metabolic stability in liver microsomes % Parent after 2 hrs, Monkey [6]: 1%

SMILES: COP(=O)(C1=C(C(=O)NCc2ccncc2)N=C2C=CC(Cl)=CC21)c1cc(C)cc(F)c1 (centres unmarked) [Compound P]
- Metabolic stability in liver microsomes % Parent after 2 hrs, Dog [1]: 20%
- IC50 (CYP3A4): 0.77 µM
- Metabolic stability in liver microsomes % Parent after 2 hrs, Human [2]: 3%
- IC50 (CYP2D6): 2.01 µM
- IC50 (CYP2C9): 1.68 µM
- solubility at 3 h [3, 10]: > 1000 µM
- solubility at 3 h [3, 11]: 724 µM (≈ 342 µg/mL)
- solubility at 3 h [3, 12]: 24 µM (≈ 11.3 µg/mL)
- solubility at 3 h [3, 13]: 33.8 µM (≈ 15.9 µg/mL)
- Metabolic stability in liver microsomes % Parent after 2 hrs, Rat [4]: 0%
- fraction unbound at 6 h, 1 μM [5]: < 0.005
- Metabolic stability in liver microsomes % Parent after 2 hrs, Monkey [6]: 3%

— patent publication US7534809B2, “Phospho-indoles as HIV inhibitors” (priority 2004, dated 2009)
